According to paper PMC11211567, “Tetrandrine inhibits aldosterone synthesis by covalently targeting CYP11A1 to attenuate hypertension” (Frontiers in Pharmacology, 2024):

Molecular target: T1, CYP11A1 (Homo sapiens, UniProt P05108)
T1 construct: recombinant WT human CYP11A1, pET-28a(+), C-terminal His6, coexpressed with GroEL/ES in E. coli, purified; MST
T1 sequence (P05108 40-521): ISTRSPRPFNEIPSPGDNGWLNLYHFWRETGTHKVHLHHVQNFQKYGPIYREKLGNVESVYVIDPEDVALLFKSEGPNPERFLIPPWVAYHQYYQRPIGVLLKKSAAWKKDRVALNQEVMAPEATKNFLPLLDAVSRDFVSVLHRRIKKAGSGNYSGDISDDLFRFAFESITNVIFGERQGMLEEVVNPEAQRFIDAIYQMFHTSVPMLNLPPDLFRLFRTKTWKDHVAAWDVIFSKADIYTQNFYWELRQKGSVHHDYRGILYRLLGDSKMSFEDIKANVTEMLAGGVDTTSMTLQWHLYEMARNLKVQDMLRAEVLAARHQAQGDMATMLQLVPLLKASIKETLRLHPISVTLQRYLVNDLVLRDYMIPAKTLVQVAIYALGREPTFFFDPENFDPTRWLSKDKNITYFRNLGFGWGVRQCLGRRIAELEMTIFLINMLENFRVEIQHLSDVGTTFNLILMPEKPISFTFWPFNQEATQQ
Test: MST with purified protein; in-gel competition with Tet probe; CO difference spectra; cell activity IC50 […]
Assay type: binding

- Kd: 12.5 µM
SMILES: COc1ccc2cc1Oc1ccc(cc1)C[C@H]1c3cc(c(OC)cc3CCN1C)Oc1c(OC)c(OC)cc3c1[C@H](C2)N(C)CC3 [Tet, Tetrandrine]
